Source: patent publication US7981598B2, “Preventive/remedy for respiratory diseases” (Takeda Pharmaceutical Company Limited, priority 2004, dated 2011)

Experiments:
[1] = system: cells containing alveolar macrophages; experiment: Stimulation with LPS and 25-HC of bronchoalveolar lavage fluid cells from a cigarette smoke-exposed mouse; cytokine mRNA by real-time quantitative PCR; type: cell-based; conditions: co-stimulation with LPS (10 ng/ml) and 25-HC (0.3 to 3 μg/ml), 24 hours, compared with LPS alone; FIG. 6
Description: To examine the involvement of CH25H on the morbid state of COPD, the effect of added 25-hydroxycholesterol (25-HC), i.e. CH25H reaction product, on alveolar macrophages was examined. According to the method described in EXAMPLE 4, a mouse was exposed to cigarette smoke for 4 days, and on the next day of the final exposure, the bronchoalveolar lavage fluid was recovered according to the method described in EXAMPLE 4, and cells containing alveolar macrophages were seeded on a 96-well plate at a density of 1×10^6 cells/ml. On the next day, the cells were stimulated with LPS (10 ng/ml) and 25-HC (0.3 to 3 μg/ml) and cultured for 24 hours. According to the method described in EXAMPLE 1, total RNA was then recovered from the cells according to the attached manual, and the amounts of mRNAs of CXCL2 and IL-1β, that is, inflammatory cytokines, were quantified by the real-time quantitative PCR method. As each probe, the corresponding probe was selected from Assays on demand gene expression product (Applied Biosystems) and used. The expression level of each gene was calculated as relative expression value to rodent GAPDH by the comparative Ct value method.

C57BL/6 mice [2] = experiment: Production of cytokines in bronchoalveolar lavage fluid after intratracheal administration of 25-HC (ELISA); type: in vivo; conditions: 50 μg/50 μl/mouse, 3 hours after administration, vs control, FIG. 7
Description: To examine whether production of cytokines by 25-HC is observed in vivo as well, the effect of 25-HC administered to the lung of a mouse was examined.
25-HC or a control (physiological saline containing a solvent at the same concentration as used in dissolving 25-HC (10% aqueous ethanol)) was intratracheally administered at a dose of 50 μg/50 μl/mouse to C57BL/6 mice (6-week-old, male) under anesthesia with halothane, and 3, 6, 12, 24 and 48 hours after administration, the bronchoalveolar lavage fluid was recovered, and the amounts of KC and MIP-2, that is, inflammatory cytokines in the lavage fluid were measured by a commercial ELISA kit.

C57BL/6 mice [3] = experiment: Neutrophil infiltration in bronchoalveolar lavage fluid after intratracheal administration of hydroxylated cholesterols; type: in vivo; conditions: 50 μg/50 μl/mouse/day for 4 days, lavage on the next day, FIG. 8
Description: To examine whether the airway inflammatory reaction by 25-HC is observed in vivo as well, the effect of 25-HC administered to the lung of a mouse was examined.
25-HC or a control (physiological saline containing a solvent at the same concentration as used in dissolving 25-HC (9.5% aqueous ethanol)), or 4β-hydroxycholesterol (4β-HC), was intratracheally administered for 4 days at a dose of 50 μg/50 μl/mouse/day to C57BL/6 mice (7-week-old, male) under anesthesia with ketamine and xylazine, and on the next day, the bronchoalveolar lavage fluid was recovered, and the number of inflammatory cells was determined.

SMILES: C[C@H](CCCC(C)(C)O)[C@H]1CC[C@H]2[C@@H]3CC=C4C[C@@H](O)CC[C@]4(C)[C@H]3CC[C@]12C [25-HC, 25-hydroxycholesterol]
- expression of CXCL2 (mRNA, relative to rodent GAPDH) [1]: increased depending on the concentration of 25HC
- expression of IL-1β (mRNA, relative to rodent GAPDH) [1]: increased depending on the concentration of 25HC
- amount of KC in bronchoalveolar lavage fluid (C57BL/6 mice [2]): significant increase
- amount of MIP-2 in bronchoalveolar lavage fluid (C57BL/6 mice [2]): significant increase
- neutrophil infiltration (number of neutrophils in bronchoalveolar lavage fluid) (C57BL/6 mice [3]): significant neutrophil infiltration was recognized
